# From ChEMBL document CHEMBL6074671, “Discovery of Pyridine-2-Carboxamides Derivatives as Potent and Selective HPK1 Inhibitors for the Treatment of Cancer” (J Med Chem, 2024)
# Columns and labels:
# [1] = Dose normalized AUC (0 to 24 hrs) in Sprague-Dawley rat at 10 mg/kg, po; assay type: ADME, organism-based; settings: in vivo
# [2] = Oral bioavailability n Sprague-Dawley rat at 10 mg/kg; assay type: ADME, organism-based; settings: in vivo
# [3] = Oral bioavailability in Balb/c mouse at 10 mg/kg; assay type: ADME, organism-based; settings: in vivo
# [4] = molecular target: T1, Mitogen-activated protein kinase kinase kinase kinase 3 (Homo sapiens, UniProt Q8IVH8); test: Inhibition of human recombinant GST-tagged MAP4K3 ([…]) extracted from Baculovirus expression system
# T1 sequence (Q8IVH8 whole entry): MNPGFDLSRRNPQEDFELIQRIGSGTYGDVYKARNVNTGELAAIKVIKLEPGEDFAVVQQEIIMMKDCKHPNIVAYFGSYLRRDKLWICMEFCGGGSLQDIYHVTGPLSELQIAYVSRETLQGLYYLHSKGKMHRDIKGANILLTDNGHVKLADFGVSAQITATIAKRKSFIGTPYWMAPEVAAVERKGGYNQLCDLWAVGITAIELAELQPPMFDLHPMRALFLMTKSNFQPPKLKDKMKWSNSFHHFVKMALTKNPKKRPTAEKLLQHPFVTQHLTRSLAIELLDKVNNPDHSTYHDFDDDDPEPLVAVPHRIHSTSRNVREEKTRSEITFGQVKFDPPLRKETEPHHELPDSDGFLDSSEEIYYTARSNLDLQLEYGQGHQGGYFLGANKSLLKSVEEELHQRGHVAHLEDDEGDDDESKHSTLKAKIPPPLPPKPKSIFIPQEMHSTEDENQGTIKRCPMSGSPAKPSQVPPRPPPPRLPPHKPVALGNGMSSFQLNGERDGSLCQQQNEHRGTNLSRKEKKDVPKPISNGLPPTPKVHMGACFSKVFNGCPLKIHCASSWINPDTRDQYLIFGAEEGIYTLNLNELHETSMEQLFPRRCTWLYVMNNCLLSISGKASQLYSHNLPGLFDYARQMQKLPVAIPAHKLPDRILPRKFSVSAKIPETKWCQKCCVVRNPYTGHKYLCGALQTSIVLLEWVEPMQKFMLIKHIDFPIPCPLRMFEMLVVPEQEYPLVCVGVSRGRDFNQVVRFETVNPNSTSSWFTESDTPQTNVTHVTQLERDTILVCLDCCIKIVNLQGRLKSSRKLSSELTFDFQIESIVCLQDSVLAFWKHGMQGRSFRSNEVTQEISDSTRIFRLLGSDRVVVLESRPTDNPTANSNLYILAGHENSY
# [5] = molecular target: Tyrosine-protein kinase Lck (Homo sapiens, UniProt P06239); test: Inhibition of LCK (unknown origin)
# [6] = molecular target: Tyrosine-protein kinase Lyn (Homo sapiens, UniProt P07948); test: Inhibition of LYNa (unknown origin)
# Tyrosine-protein kinase Lyn, sequence (P07948 whole entry): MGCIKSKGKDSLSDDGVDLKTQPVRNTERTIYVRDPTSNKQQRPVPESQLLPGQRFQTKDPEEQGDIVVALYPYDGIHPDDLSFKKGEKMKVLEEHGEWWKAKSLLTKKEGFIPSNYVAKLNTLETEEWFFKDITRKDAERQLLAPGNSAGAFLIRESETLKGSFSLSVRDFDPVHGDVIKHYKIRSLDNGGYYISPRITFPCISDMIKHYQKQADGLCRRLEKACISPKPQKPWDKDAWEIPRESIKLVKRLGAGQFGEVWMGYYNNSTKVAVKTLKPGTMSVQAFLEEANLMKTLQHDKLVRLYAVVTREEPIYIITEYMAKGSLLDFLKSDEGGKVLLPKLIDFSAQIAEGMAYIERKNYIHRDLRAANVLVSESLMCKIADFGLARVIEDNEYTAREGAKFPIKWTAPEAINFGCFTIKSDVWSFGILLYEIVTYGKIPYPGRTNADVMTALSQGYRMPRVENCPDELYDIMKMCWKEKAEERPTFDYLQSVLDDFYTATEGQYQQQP
# [7] = molecular target: Serine/threonine-protein kinase 4 (Homo sapiens, UniProt Q13043); test: Inhibition of MST1 (unknown origin)
# Serine/threonine-protein kinase 4, sequence (Q13043 whole entry): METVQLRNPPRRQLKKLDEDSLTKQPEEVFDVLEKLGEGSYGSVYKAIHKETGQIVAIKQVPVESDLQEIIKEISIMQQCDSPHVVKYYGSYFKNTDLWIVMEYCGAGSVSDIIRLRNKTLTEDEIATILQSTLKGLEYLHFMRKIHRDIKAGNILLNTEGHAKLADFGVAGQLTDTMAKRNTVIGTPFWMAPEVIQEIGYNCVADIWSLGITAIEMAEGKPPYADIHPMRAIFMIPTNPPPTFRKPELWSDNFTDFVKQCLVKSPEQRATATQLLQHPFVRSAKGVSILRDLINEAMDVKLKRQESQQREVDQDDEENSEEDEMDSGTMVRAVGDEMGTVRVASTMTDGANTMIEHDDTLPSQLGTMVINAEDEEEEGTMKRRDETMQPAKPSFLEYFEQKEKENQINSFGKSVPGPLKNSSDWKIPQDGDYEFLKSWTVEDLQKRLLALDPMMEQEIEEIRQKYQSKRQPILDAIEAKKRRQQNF
# [8] = molecular target: Cyclin-dependent kinase 2 (Homo sapiens, UniProt P24941); test: Inhibition of CDK2 (unknown origin)
# [9] = molecular target: Receptor-type tyrosine-protein kinase FLT3 (Homo sapiens, UniProt P36888); test: Inhibition of FLT3 (unknown origin)
# [10] = molecular target: Non-receptor tyrosine-protein kinase TYK2 (Homo sapiens, UniProt P29597); test: Inhibition of TYK2 (unknown origin)
# Non-receptor tyrosine-protein kinase TYK2, sequence (P29597 whole entry): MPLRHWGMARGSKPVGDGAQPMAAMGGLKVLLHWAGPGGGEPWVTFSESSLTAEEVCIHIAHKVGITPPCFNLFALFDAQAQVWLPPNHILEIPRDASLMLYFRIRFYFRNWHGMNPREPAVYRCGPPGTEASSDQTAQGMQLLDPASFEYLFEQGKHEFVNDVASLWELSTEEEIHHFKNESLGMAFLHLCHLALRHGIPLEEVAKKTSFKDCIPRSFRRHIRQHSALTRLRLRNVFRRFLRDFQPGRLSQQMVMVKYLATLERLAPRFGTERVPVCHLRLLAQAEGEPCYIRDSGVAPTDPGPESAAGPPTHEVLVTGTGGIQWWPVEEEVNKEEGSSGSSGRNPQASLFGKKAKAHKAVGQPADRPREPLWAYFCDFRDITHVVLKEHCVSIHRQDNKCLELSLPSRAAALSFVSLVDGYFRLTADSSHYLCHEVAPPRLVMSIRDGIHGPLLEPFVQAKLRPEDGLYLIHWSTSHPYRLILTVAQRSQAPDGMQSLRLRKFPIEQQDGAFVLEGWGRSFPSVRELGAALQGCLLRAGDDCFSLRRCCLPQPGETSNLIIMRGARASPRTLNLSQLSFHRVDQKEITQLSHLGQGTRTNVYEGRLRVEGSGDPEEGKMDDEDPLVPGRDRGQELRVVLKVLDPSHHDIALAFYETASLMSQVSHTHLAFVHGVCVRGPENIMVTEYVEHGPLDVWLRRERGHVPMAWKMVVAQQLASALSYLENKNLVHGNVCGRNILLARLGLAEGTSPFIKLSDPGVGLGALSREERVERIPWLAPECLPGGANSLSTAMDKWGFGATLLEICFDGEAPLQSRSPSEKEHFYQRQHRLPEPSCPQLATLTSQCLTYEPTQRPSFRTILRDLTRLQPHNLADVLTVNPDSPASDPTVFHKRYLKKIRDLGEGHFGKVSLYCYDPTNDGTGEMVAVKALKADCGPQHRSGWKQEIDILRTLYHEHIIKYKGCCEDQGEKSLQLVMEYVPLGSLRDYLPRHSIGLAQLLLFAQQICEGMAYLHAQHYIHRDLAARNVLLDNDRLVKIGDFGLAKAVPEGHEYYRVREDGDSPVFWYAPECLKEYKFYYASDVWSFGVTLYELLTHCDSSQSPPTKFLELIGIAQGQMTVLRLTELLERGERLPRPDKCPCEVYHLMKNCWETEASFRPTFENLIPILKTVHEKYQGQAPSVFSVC
# [11] = molecular target: Serine/threonine-protein kinase PAK 1 (Homo sapiens, UniProt Q13153); test: Inhibition of PAK1 (unknown origin)
# [12] = molecular target: Mitogen-activated protein kinase kinase kinase 7 (Homo sapiens, UniProt O43318); test: Inhibition of TAK1 (unknown origin)
# Mitogen-activated protein kinase kinase kinase 7, sequence (O43318 whole entry): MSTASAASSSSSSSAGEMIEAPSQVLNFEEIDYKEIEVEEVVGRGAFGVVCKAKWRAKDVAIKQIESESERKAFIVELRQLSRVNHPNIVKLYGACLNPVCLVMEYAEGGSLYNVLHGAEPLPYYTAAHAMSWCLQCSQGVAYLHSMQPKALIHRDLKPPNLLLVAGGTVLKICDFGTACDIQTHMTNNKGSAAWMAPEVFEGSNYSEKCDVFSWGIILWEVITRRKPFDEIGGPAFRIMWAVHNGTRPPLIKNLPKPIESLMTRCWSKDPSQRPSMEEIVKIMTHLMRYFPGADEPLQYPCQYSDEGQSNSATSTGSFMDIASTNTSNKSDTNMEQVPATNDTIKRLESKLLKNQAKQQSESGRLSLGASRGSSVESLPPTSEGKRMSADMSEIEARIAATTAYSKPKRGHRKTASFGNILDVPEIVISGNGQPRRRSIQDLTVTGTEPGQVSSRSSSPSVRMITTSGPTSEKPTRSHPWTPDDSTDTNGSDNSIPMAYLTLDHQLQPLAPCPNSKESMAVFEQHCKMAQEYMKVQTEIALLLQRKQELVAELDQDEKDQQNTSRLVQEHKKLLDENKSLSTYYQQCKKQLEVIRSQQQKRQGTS
# [13] = molecular target: Mitogen-activated protein kinase 14 (Homo sapiens, UniProt Q16539); test: Inhibition of p38 alpha (unknown origin)
# [14] = molecular target: Proto-oncogene tyrosine-protein kinase receptor Ret (Homo sapiens, UniProt P07949); test: Inhibition of RET (unknown origin)
# Proto-oncogene tyrosine-protein kinase receptor Ret, sequence (P07949 whole entry): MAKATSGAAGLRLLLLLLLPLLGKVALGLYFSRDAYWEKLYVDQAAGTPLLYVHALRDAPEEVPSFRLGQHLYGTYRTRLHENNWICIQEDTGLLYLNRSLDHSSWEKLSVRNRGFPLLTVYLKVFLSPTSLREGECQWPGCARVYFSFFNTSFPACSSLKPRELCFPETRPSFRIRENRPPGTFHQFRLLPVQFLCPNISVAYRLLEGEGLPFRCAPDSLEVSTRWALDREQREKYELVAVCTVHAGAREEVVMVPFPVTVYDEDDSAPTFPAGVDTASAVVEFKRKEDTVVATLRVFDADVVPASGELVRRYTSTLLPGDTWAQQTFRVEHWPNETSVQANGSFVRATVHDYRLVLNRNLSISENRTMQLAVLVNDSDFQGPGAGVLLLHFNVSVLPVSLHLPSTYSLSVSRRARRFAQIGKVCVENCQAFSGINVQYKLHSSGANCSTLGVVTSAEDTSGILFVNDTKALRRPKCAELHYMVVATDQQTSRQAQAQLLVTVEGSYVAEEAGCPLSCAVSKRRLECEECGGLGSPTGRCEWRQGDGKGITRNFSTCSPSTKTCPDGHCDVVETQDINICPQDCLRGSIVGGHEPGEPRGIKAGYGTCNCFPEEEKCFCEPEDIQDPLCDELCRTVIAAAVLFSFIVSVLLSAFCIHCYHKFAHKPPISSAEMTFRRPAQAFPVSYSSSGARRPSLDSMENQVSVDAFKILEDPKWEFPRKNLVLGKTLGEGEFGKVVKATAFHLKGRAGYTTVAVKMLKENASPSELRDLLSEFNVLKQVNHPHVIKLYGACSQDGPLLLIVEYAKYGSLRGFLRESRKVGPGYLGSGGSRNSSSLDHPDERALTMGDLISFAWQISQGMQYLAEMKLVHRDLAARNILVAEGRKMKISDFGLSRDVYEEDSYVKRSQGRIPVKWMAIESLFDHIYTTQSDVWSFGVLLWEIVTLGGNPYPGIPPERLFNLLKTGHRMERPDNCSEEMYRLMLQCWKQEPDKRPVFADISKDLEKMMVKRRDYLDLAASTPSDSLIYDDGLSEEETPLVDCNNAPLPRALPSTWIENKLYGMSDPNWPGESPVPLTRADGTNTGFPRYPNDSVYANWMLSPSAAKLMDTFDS
# [15] = test system: CT26; test: Antitumor activity against mouse CT26 cells implanted in Balb/c mouse model assessed as tumor growth inhibition administered as po dose BID measured after 15 days relative to control; assay type: functional; settings: time 15 day
# [16] = test system: CT26; test: Antitumor activity against mouse CT26 cells implanted in Balb/c mouse model assessed as tumor growth inhibition at high dose administered as po BID measured after 15 days relative to control; assay type: functional; settings: time 15 day
# [17] = test system: MC-38; test: Synergistic antitumor activity against mouse MC38 cells implanted in C57BL/6 mouse model assessed as CDI value at low dose, po BID measured after 12 days in presence of anti-PD-1; assay type: functional; settings: time 12 day
# [18] = Toxicity in C57BL/6 mouse implanted with mouse MC38 cells assessed as effect on body weight loss at low dose, po BID measured after 12 days; assay type: organism-based; settings: in vivo, 288 h, time 12 day
# [19] = Toxicity in C57BL/6 mouse implanted with mouse MC38 cells assessed as effect on body weight loss at high dose, po BID measured after 12 days; assay type: organism-based; settings: in vivo, 288 h, time 12 day
# [20] = Toxicity in C57BL/6 mouse implanted with mouse MC38 cells assessed as increase in survival at high dose, po BID measured after 12 days; assay type: organism-based; settings: in vivo, 288 h, time 12 day
# [21] = Kinetic solubility of the compound in PBS buffer at pH 7.4 measured after 24 hrs by HPL-UV analysis; assay type: physicochemical; settings: read-out: Kinetic_solubility
# [22] = Plasma protein binding in human assessed as unbound fraction at 2 uM incubated for 4 hrs by LC-MS/MS analysis; assay type: ADME, cell-free
# [23] = molecular target: Cytochrome P450 1A2 (Homo sapiens, UniProt P05177); test: Inhibition of CYP1A2 in human liver microsomes using phenacetin O-demethylation as substrate incubated for 10 mins in presence of NADPH by LC-MS/MS analysis; assay type: ADME, Microsome
# Cytochrome P450 1A2, sequence (P05177 whole entry): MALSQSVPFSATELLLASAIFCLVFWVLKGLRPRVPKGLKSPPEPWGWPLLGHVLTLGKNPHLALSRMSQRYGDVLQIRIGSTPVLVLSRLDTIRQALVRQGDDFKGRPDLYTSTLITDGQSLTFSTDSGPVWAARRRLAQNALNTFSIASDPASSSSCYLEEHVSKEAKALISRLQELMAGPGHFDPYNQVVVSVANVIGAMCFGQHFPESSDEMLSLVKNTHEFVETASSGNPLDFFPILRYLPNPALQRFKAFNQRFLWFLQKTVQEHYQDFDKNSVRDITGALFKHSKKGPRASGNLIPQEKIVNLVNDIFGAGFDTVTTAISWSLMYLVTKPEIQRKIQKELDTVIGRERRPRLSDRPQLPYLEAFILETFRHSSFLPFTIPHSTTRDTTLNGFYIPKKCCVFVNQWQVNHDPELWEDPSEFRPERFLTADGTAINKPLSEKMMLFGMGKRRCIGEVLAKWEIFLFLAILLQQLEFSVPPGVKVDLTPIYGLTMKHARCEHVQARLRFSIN
# [24] = molecular target: Cytochrome P450 2D6 (Homo sapiens, UniProt P10635); test: Inhibition of CYP2D6 in human liver microsomes using O-demethylation as substrate incubated for 10 mins in presence of NADPH by LC-MS/MS analysis; assay type: ADME, Microsome
# Cytochrome P450 2D6, sequence (P10635 whole entry): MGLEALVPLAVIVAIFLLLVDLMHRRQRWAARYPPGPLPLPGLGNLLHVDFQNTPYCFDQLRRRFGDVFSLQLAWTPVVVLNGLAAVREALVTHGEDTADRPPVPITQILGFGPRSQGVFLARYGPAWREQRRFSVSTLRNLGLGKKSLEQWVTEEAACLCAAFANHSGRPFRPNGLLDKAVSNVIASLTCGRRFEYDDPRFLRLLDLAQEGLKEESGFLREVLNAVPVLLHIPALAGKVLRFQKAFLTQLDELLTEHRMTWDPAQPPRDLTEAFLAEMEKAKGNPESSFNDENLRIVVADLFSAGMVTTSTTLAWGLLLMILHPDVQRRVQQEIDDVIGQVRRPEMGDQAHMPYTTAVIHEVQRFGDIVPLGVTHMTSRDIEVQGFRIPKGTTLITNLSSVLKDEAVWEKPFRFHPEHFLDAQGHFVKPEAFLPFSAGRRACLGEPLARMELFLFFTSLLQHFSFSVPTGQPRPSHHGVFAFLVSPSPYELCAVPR
# [25] = Genotoxicity in Salmonella typhimurium TA98 incubated for 48 to 72 hrs in presence of S9 fraction by AMES test; assay type: toxicity, subcellular; settings: salmonella enterica subsp. enterica serovar typhimurium, time 48-72 hrs
# [26] = Genotoxicity in Salmonella typhimurium TA100 incubated for 48 to 72 hrs in presence of S9 fraction by AMES test; assay type: toxicity, subcellular; settings: salmonella enterica subsp. enterica serovar typhimurium, time 48-72 hrs
# [27] = Inhibition of pSLP76 in human PBMC cells incubated for 4 hrs by HTRF method; assay type: cell-based
# [28] = Effect on IFN-gamma secretion in human T cells by ELISA method; assay type: functional, cell-based; settings: T-cell
# [29] = in vivo; settings: Sprague-Dawley, rat, iv, 1 mg/kg
# Description: Volume of distribution in Sprague-Dawley rat at 1 mg/kg, iv
# [30] = in vivo; settings: Beagle, dog, iv, 1 mg/kg
# Description: Volume of distribution in Beagle dog at 1 mg/kg, iv
# [31] = in vivo; settings: Beagle, dog, po, 2 mg/kg
# [32] = in vivo; settings: cynomolgus monkey, plasma, iv, 1 mg/kg
# Description: Clearance in Cynomolgus monkey plasma at 1 mg/kg, iv
# [33] = in vivo; settings: cynomolgus monkey, iv, 1 mg/kg
# Description: Volume of distribution in Cynomolgus monkey at 1 mg/kg, iv
compound,measurement,setting,value
COc1cc(Nc2ccc3c(n2)CN(C)C32CCN(C3COC3)CC2)c(C(N)=O)nc1-c1cccc2c1ncn2C,AUC/dose,[1],593.6 ng·h/mL
same,bioavailability,[2],34.7%
same,bioavailability,[3],62.5%
same,IC50,[4],325 nM
same,IC50,[5],521 nM
same,IC50,[6],5140 nM
same,IC50,[7],500 nM
same,IC50,[8],> 10000 nM
same,IC50,[9],317 nM
same,IC50,[10],> 10000 nM
same,IC50,[11],> 10000 nM
same,IC50,[12],> 10000 nM
same,IC50,[13],> 10000 nM
same,IC50,[14],2990 nM
same,TGI,[15],64.3%
same,TGI,[16],94.3%
same,Activity,[17],0.78
same,Activity,[18],Non-toxic
same,Activity,[19],Non-toxic
same,Activity,[20],Non-toxic
same,solubility kinetic at 24 h,[21],2.14 µM
same,"fraction unbound at 4 h, 2 µM",[22],0.129
same,IC50,[23],> 50000 nM
same,IC50,[24],> 50000 nM
same,Activity,[25],Non-toxic
same,Activity,[26],Non-toxic
same,IC50,[27],19.9 nM
same,EC50,[28],49.2 nM
same,Vd,[29],2.2 L/kg
same,Vd,[30],5.58 L/kg
same,bioavailability,[31],41.5%
same,clearance,[32],11.4 mL/min/kg
same,Vd,[33],5.07 L/kg
